{"source": "patent US9452177B2", "about": "“Vitamin D compounds and methods for reducing ocular hypertension (OHT)” (Wisconsin Alumni Research Foundation, priority 2008, dated 2016)", "key": {"[1]": {"experiment": "Ocular inflammation by slit-lamp biomicroscopy", "type": "in vivo, cynomolgus monkeys (Macaca fascicularis)", "settings": "Example 1; 5 topical treatments, 5 μg (2MD 6 μg)", "protocol": "The intraocular pressure (IOP) was determined with a “minified” Goldmann applanation tonometer [Kaufman, 1980] using HALF AND HALF™ creamer solution (Borden) as the tear film indicator [Croft, 1997] with the monkey lying prone in a head holder and the eyes positioned 4 to 8 cm above the heart. All monkeys were examined by slit-lamp before the first IOP measurement in each protocol. For each eye, two or three IOP measurements were averaged as a baseline.\nOn the 3th day, prior to the 5th treatment, baseline IOP, biomicroscopy and MAP were determined. Preliminary studies indicated an effect was observed after these treatments but not after a single treatment. Following the 5th dose, IOP was measured at 1, 2, 3, 4, 5, 6, 7, 8, 12 (if possible), 24, and sometimes 48 hr. Biomicroscopy was done at 1, 3, 6, 24 and sometimes 48 hr. MAP on day 3 (some protocols) was determined at 1, 2, 3, 4, 5, 6, 7, 8, 24 and sometimes 48 hr if possible. Blood samples after the 5th treatment were collected at 6, 24, and sometimes 48 hr. For some protocols, IOP was also measured prior to each treatment; MAP was measured prior to the morning treatment; blood was collected prior to the afternoon treatment. Subsequent screening protocols will not include the MAP and blood collections and will only measure IOP at baseline and prior to and for 1-6 hr after the 5th treatment.\nBaseline pretreatment IOP was determined by Goldmann applanation tonometry [Kaufman, 1980] with […] used as a tear film indicator [Croft, 1997]. Two baseline IOP measurements were taken 5 minutes apart. Monkeys were then treated topically with 5 μl of 1,25-dihydroxyvitamin D3 (1,25-(OH)2D3) (0.1-5 μg) to one eye and vehicle (propylene glycol) to the opposite eye twice a day for 5 treatments total. […] IOP was also measured prior to the afternoon treatment. On the third day, IOP was measured prior to the morning treatment. Following the fifth treatment, IOP was measured hourly for 8 hours and, in some cases, also at 12, 24, and 48 hours. […]"}, "[2]": {"tested_on": "eyes of cynomolgus monkeys", "experiment": "Aqueous humor formation rate by ocular scanning fluorophotometry", "type": "in vivo", "settings": "for AHF Rx/Baseline, Vitamin D eye / AHF Rx/Baseline, Vitamin D/Vehicle / AHF ratio Vitamin D/Vehicle after treatment / Aqueous humor formation (AHF), Vitamin D eye after treatment: 5 μg", "protocol": "Ocular normotensive adult cynomolgus monkeys, of either sex, weighing 3-7 kg were anesthetized with i.m. ketamine HCl (3-25 mg/kg, supplemented with 1-10 mg/kg) for IOP, topical drop administration and aqueous humor flow measurements. All monkeys were free of any ocular abnormalities according to slit lamp biomicroscopy at the time measurements were taken. For outflow facility measurements, animals were given intravenous sodium pentobarbital (15 mg/kg, supplemented with 5-10 mg/kg) following i.m. ketamine induction.\nAqueous humor formation rate was determined by ocular scanning fluorophotometry (Fluorotron Master, OcuMetrics Inc, Mountain View, Calif.) as previously described [Rasmussen, 2007]. Fluorescein drops were administered at least 30 minutes after the fourth treatment (see above) with vitamin D or vehicle. On day 3, prior to the fifth treatment, IOP and biomicroscopy were done. Following the fifth treatment scans were taken hourly, beginning 1 hour after treatment, until 6 duplicates scans were collected. Baseline scans were collected for 6 hours within 2 weeks before and at least 2 weeks after the treatment study. Post treatment aqueous humor formation rates were compared to the average of the pre and post baseline scans and to the vehicle treated eyes by the paired t-test for ratios different from 1.0. There were 8 monkeys for each treatment group.\nAqueous humor formation was measured by fluorophotometry during the interval 1-6 hr after the 5th topical bid treatment with vitamin D or vehicle to opposite eyes (see Materials and Methods). Units for aqueous humor formation are μl/min. Data are Mean±Sem. Rx, treatment (Vitamin D or vehicle) n=6."}, "[3]": {"settings": "Hours 1-3 after 5th topical bid treatment"}, "[4]": {"settings": "Hours 1-6 after 5th topical bid treatment"}, "[5]": {"settings": "Hours 4-6 after 5th topical bid treatment"}}, "note": "Entries after “also recorded” stand apart in the source; their conditions may differ.", "data": [{"smiles": "C=C1/C(=C\\C=C2/CCC[C@]3(C)[C@@H]([C@H](C)CCCC(C)(C)O)CC[C@@H]23)C[C@@H](O)C[C@@H]1O", "note": "[1,25-(OH)2D3, 1α,25-dihydroxyvitamin D3]", "values": [{"measurement": "ocular inflammation", "setting": "[1]", "result": "no ocular inflammation at any time-point"}, {"measurement": "change in aqueous humor formation rate", "setting": "[2]; 5 μg topical, compared to baseline or vehicle eye", "result": "no changes in the aqueous humor formation rates; also recorded: does not change the aqueous humor formation"}, {"measurement": "AHF Rx/Baseline, Vitamin D eye", "setting": "[2]; [3]", "result": "1.06 ± 0.10"}, {"measurement": "AHF Rx/Baseline, Vitamin D/Vehicle", "setting": "[2]; [3]", "result": "1.07 ± 0.06"}, {"measurement": "AHF ratio Vitamin D/Vehicle after treatment", "setting": "[2]; [3]", "result": "0.94 ± 0.05"}, {"measurement": "Aqueous humor formation (AHF), Vitamin D eye after treatment", "setting": "[2]; [3]", "result": "1.27 ± 0.08", "unit": "µL/min"}, {"measurement": "AHF Rx/Baseline, Vitamin D eye", "setting": "[2]; [4]", "result": "1.14 ± 0.06"}, {"measurement": "AHF Rx/Baseline, Vitamin D/Vehicle", "setting": "[2]; [4]", "result": "1.10 ± 0.07"}, {"measurement": "AHF ratio Vitamin D/Vehicle after treatment", "setting": "[2]; [4]", "result": "1.01 ± 0.07"}, {"measurement": "Aqueous humor formation (AHF), Vitamin D eye after treatment", "setting": "[2]; [4]", "result": "1.53 ± 0.10", "unit": "µL/min"}, {"measurement": "AHF Rx/Baseline, Vitamin D eye", "setting": "[2]; [5]", "result": "1.25 ± 0.09"}, {"measurement": "AHF Rx/Baseline, Vitamin D/Vehicle", "setting": "[2]; [5]", "result": "1.22 ± 0.16"}, {"measurement": "AHF ratio Vitamin D/Vehicle after treatment", "setting": "[2]; [5]", "result": "0.98 ± 0.10"}, {"measurement": "Aqueous humor formation (AHF), Vitamin D eye after treatment", "setting": "[2]; [5]", "result": "1.54 ± 0.14", "unit": "µL/min"}]}]}
